Columns and labels:
[1] = system: ventricular arrhythmias induced by chloroform; assay: Antiarrhythmic activity: prevention of chloroform-induced ventricular flutter and fibrillation in mice; details: for ED40 / ED50 / ED20: Mus musculus, sc, 0.5 h; for ED50: read-out: ED50 (95% confidence limit); for Therapeutic index: ratio of LD50 and ED50
Protocol: At the time when they ceased to breathe, electrocardiogram of each animal was recorded to observe the flutter and fibrillation of the ventricle.
The abnormalities of ventriculus as observed in these animals can be prevented by previous administration of a substance showing antiarrhythmic activity. A compound of this invention, at various dosages, was subcutaneously injected to mice grouped by 29-40 heads. Thirty minutes later these mice were treated with chloroform to induce arrhythmias. Prophylaxis percentages of the flutter and fibrillation of ventricle for each dosage were calculated.

ddY strain male mice = assay: in vivo; details: mouse
in vivo = details: mouse

Row | SMILES | ED40 [1] [mg/kg] | ED50 [1] [mg/kg] | LD50 (ddY strain male mice) [mg/kg] | Therapeutic index [1] | LD50 (in vivo) [mg/kg] | ED20 [1] [mg/kg]
1 | COc1ccccc1NC(=O)CC12CCCN1CCC2 [Compound 5, N-(2-methoxyphynyl)-8-pyrrolizidineacetamide] | 100 | > 100 | 381 |  |  | 
2 | Cc1ccc(C)c(NC(=O)CC23CCCN2CCC3)c1 [Compound 11, N-(2,5-dimethylphenyl)-8-pyrrolizidineacetamide] |  | 72 | 400 | 5.56 |  | 
3 | Cc1cc(C)c(NC(=O)CC23CCCN2CCC3)c(C)c1 [Compound 18, N-(2,4,6-trimethylphenyl)-8-pyrrolizidineacetamide] |  | 34 | 309 | 9.09 |  | 
4 | Cc1ccc(NC(=O)CC23CCCN2CCC3)c(C)c1 [Compound 10, N-(2,4-dimethylphenyl)-8-pyrrolizidineacetamide] | 100 | > 100 |  |  | 398 | 
5 | COc1ccc(NC(=O)CC23CCCN2CCC3)cc1 [Compound 7, N-(4-methoxyphenyl)-8-pyrrolizidineacetamide] |  | 60 | 288 | 4.80 |  | 
6 | O=C(CC12CCCN1CCC2)Nc1c(Cl)cccc1Cl [Compound 16, N-(2,6-dichlorophenyl)-8-pyrrolizidineacetamide] |  | > 100 | 200 |  |  | 100
7 | O=C(CC12CCCN1CCC2)Nc1ccccc1Cl [Compound 3, N-(2-chlorophenyl)-8-pyrrolizidineacetamide] |  | > 100 | 347 |  |  | 100
8 | Cc1cccc(NC(=O)CC23CCCN2CCC3)c1C [Compound 9, N-(2,3-dimetylphenyl)-8-pyrrolizidineacetamide] |  | 64 | 469 | 7.33 |  | 
9 | CCc1cccc(CC)c1NC(=O)CC12CCCN1CCC2 [Compound 17, N-(2,6-diethylphenyl)-8-pyrrolizidineacetamide] |  | 28 | 278 | 9.93 |  | 
10 | COc1ccc(OC)c(NC(=O)CC23CCCN2CCC3)c1 [Compound 15, N-(2,5-dimethoxyphenyl)-8-pyrrolizidineacetamide] |  | 90 | 203 | 2.26 |  | 
11 | COc1cccc(NC(=O)CC23CCCN2CCC3)c1 [Compound 6, N-(3-methoxyphenyl)-8-pyrrolizidineacetamide] | 100 | > 100 | 417 |  |  | 
12 | Cc1ccc(NC(=O)CC23CCCN2CCC3)cc1 [Compound 2, N-(4-methylphenyl)-8-pyrrolizidineacetamide] |  |  | 413 |  |  | 100
13 | O=C(CC12CCCN1CCC2)Nc1ccccc1Br [Compound 4, N-(2-bromophenyl)-8-pyrrolizidineacetamide] |  | 59 | 445 | 7.54 |  | 
14 | Cc1ccc(NC(=O)CC23CCCN2CCC3)cc1C [Compound 13, N-(3,4-dimethylphenyl)-8-pyrrolizidineacetamide] |  | 76 | 559 | 7.36 |  | 
15 | Nc1ccccc1NC(=O)CC12CCCN1CCC2 [Compound 8, N-(2-aminophenyl)-8-pyrrolizidineacetamide] |  | 100 | 633 | 6.33 |  | 
16 | Cc1cccc(C)c1NC(=O)CC12CCCN1CCC2 [Compound 12, N-(2,6-dimethylphenyl)-8-pyrrolizidineacetaminde] |  | 24 |  |  |  | 
17 | Cc1cc(C)cc(NC(=O)CC23CCCN2CCC3)c1 [Compound 14, N-(3,5-dimethylphenyl)-8-pyrrolizidineacetamide] |  | 52 | 355 | 6.83 |  | 
18 | Cc1ccccc1NC(=O)CC12CCCN1CCC2 [Compound 1, N-(2-methylphenyl)-8-pyrrolizidineacetamide] | 100 | > 100 | 385 |  |  | 
